# Data from patent publication US20070072874A1, “Aminoheteroaryl compounds as protein kinase inhibitors” (Sugen, Inc., priority 2003, published 2007).
# Target: T1, GST fusion protein containing the Met kinase domain (Homo sapiens, UniProt P08581)
# T1 construct: Purified GST fusion protein containing the Met kinase domain, SUGEN, Inc
# Experiment: MET transphosphorylation assay (ELISA, poly(glu-tyr) substrate)
# Format: biochemical
# Experimental: MET Transphosphorylation Assay
# This assay is used to measure phosphotyrosine levels on a poly(glutamic acid:tyrosine, 4:1) substrate as a means for identifying agonists/antagonists of met transphosphorylation of the substrate.
# Purified GST fusion protein containing the Met kinase domain, SUGEN, Inc.
# 10% aqueous (MilliQue H2O) DMSO.
# 2× Kinase Dilution Buffer: for 100 mL, mix 10 mL 1M HEPES at pH 7.5 with 0.4 mL 5% BSA/PBS, 0.2 mL 0.1 M sodium orthovanadate and 1 mL 5M sodium chloride in 88.4 mL dH2O.
# 4× ATP Reaction Mixture: for 10 mL, mix 0.4 mL 1 M manganese chloride and 0.02 mL 0.1 M ATP in 9.56 mL dH2O.
# 4× Negative Controls Mixture: for 10 mL, mix 0.4 mL 1 M manganese chloride in 9.6 mL dH2O.
# Antibody Dilution Buffer: for 100 mL, mix 10 mL 5% BSA/PBS, 0.5 mL 5% Carnation® Instant Milk in PBS and 0.1 mL 0.1 M sodium orthovanadate in 88.4 mL TBST.
# Rabbit polyclonal antophosphotyrosine antibody, SUGEN, Inc.
# Goat anti-rabbit horseradish peroxidase conjugated antibody, Biosource, Inc.
# ABTS Solution: for 1 L, mix 19.21 g citric acid, 35.49 g Na2HPO4 and 500 mg ABTS with sufficient dH2O to make 1 L.
# ABTS/H2O2: mix 15 mL ABST solution with 2 μL H2O2 five minutes before use.
# Coat ELISA plates with 2 μg Poly(Glu-Tyr) in 100 μL PBS, hold-overnight at 4° C.
# Block plate with 150 μL of 5% BSA/PBS for 60 min.
# Wash plate twice with PBS then once with 50 mM Hepes buffer pH 7.4.
# Add 50 μl of the diluted kinase to all wells. (Purified kinase is diluted with Kinase Dilution Buffer. Final concentration should be 10 ng/well.)
# Add 25 μL of the test compound (in 4% DMSO) or DMSO alone (4% in dH2O) for controls to plate.
# Incubate the kinase/compound mixture for 15 minutes.
# Add 25 μL of 40 mM MnCl2 to the negative control wells.
# Add 25 μL ATP/MnCl2 mixture to the all other wells (except the negative controls). Incubate for 5 min.
# Add 25 μL 500 mM EDTA to stop reaction.
# Add 100 μL rabbit polyclonal anti-Ptyr diluted 1:10,000 in Antibody Dilution Buffer to each well. Incubate, with shaking, at room temperature for one hour.
# Add 100 μL per well and incubate at room temperature, with shaking, for one hour.
# Add 100 μl of ABTS/H2O2 solution to each well.
# If necessary, stop the development reaction with the addition of 100 μl of 0.2M HCl per well.
# T1 sequence (P08581 1078-1345 limits assumed): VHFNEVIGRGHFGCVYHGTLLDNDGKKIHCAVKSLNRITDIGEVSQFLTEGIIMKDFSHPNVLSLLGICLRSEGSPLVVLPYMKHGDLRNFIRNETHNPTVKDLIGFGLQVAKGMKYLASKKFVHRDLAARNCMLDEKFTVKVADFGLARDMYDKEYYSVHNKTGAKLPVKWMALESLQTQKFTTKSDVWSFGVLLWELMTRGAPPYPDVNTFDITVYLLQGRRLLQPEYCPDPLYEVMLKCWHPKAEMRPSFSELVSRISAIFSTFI
row,SMILES,IC50 [µM]
1,"CN(C)CCS(=O)(=O)Nc1cccc(-c2cnc(N)c(OCc3c(F)ccc(F)c3Cl)c2)c1 [Example I-259, 2-Dimethylamino-ethanesulfonic acid {3-[6-amino-5-(2-chloro-3,6-difluoro-benzyloxy)-pyridin-3-yl]-phenyl}-amide]",1.5
2,"CC(Oc1cc(-c2ccc(OCCN3CCCC3)cc2)cnc1N)c1c(Cl)ccc(F)c1Cl (stereo not drawn) [Example I-355, 3-[1-(2,6-Dichlaro-3-fluoro-phenyl)-ethoxy]-5-[4-(2-pyrrolidin-1-yl-ethoxy)-phenyl]-pyridin-2-ylamine]",0.68
3,"CC(Oc1cc(-c2ccc(C(=O)N3CCC(N4CCCC4)CC3)cc2)cnc1N)c1c(F)ccc(F)c1Cl (stereo not drawn) [Example I-339, (4-{6-Amino-5-[1-(2-chloro-3,6-difluoro-phenyl)-ethoxy]-pyridin-3-yl}-phenyl)-(4-pyrrolidin-1-yl-piperidin-1-yl)-methanone]",0.062
4,"CC(Oc1cc(-c2ccc(C(=O)N3CCC(N)CC3)cc2)cnc1N)c1c(Cl)ccc(F)c1Cl (stereo not drawn) [Example I-305, (4-{6-Amino-5-[1-(2,6-dichloro-3-fluoro-phenyl)-ethoxy]-pyridin-3-yl}-phenyl)-(4-amino-pipendin-1-yl)-methanone]",0.018
5,"Nc1ncc(-c2ccc(NS(=O)(=O)CCNC3CC3)cc2)nc1OCc1c(F)ccc(F)c1Cl [II-20, 2-Cyclopropylamino-ethanesulfonic acid {4-[5-amino-6-(2-chloro-3,6-difluoro-benzyloxy)-pyrazin-2-yl]-phenyl}-amide]",1.2
6,CN(C)[C@H]1CCN(C(=O)c2ccc(-c3cnc(N)c(OCc4ccc(F)cc4Cl)c3)cc2)C1 [Example I-205],8.1

# Results, then the molecule that gave them:
row,IC50 [µM],SMILES
1,0.282,"Nc1ncc(-c2cccnc2)cc1OCc1c(F)ccc(F)c1Cl [Example I-501, 5-(2-Chloro-3,6-difluoro-benzyloxy)-[3,3′]bipyridinyl-6-ylamine]"
2,> 20,"Nc1ncc(-c2cccnc2)cc1OCc1ccccc1 [Example I-489, 5-Benzyloxy-[3,3′]bipyridinyl-6-ylamine]"
3,1.45,"CN(C)[C@H]1CCN(C(=O)c2cccc(-c3cnc(N)c(OCc4c(F)ccc(F)c4Cl)n3)c2)C1 [II-54, {3-[5-Amino-6-(2-chloro-3,6-difluoro-benzyloxy)-pyrazin-2-yl]-phenyl}-[(3S)-3-dimethylamino-pyrrolidin-1-yl]-methanone]"
